Data on 3 compounds can be found in publication PMC10171913 (Journal of the American Chemical Society, 2022).

This assay relates to tqq cluster of S. suis. Briefly: High-throughput elicitor screening. The class given is cell-based, Streptococcus suis. The settings on record: for elicitation of threoglucin E: 2D slice from the 3D map, abundance of threoglucin E across all 442 elicitors, Figure 2B; for elicited features in HiTES 3D difference map: ~442-member human endogenous metabolite library, UPLC-Qtof-MS, Figure 2A.

With `c1cncc([C@@H]2CCCCN2)c1` [anabasine], the “elicitation of threoglucin E” value is on record as “best elicitors” and the “elicited features in HiTES 3D difference map” value was “elicited peaks”.

In the case of `O=C(O)c1cccnc1` [niacin], the “elicitation of threoglucin E” value was “best elicitors” and the “elicited features in HiTES 3D difference map” value is “elicited peaks”.

Consider `NC(=O)c1cccnc1` [nicotinamide], for which the “elicited features in HiTES 3D difference map” value is “elicited peaks”.
